Results taken from patent publication US11739122B2, “Glycopeptide antibiotic compounds, methods for producing the same, and uses thereof” (Academia Sinica, priority 2019, dated 2023).
Converted amounts (≈) assume the structure as drawn.

Experiments:
Assay in all cases: MIC, broth microdilution
MRSA ATCC 43300 = type: cell-based, Staphylococcus aureus; details: MRSA ATCC 43300
Protocol: (§1) Determination of Minimal Inhibitory Concentration (MIC) for Vancomycin, Teicoplanin and Tei-Analogs Versus Selected Strains
(§2) MICs were determined by the broth microdilution method. Specifically, 12 Colonies of the test strain were picked up from 18-24 hour agar cultures and freshly inoculated into broth mediums until reaching the turbidity of a 0.5 McFarland standard. The broth culture was adjusted with broth medium to approximately 1×10^8 CFUmL^−1. […] The plates were incubated in 37° C. for 18-24 hours and monitored for the wells of the positive control, where cells grew, and the wells of the negative control, where wells should not grow. The MIC value was determined for the concentration of a test compound, at which there was no visible growth in the well.

MRSA ATCC 700698 hVISA = type: cell-based, Staphylococcus aureus; details: MRSA ATCC 700698 hVISA
Protocol: as §1, §2

MRSA ATCC 700787 VRSA = type: cell-based, Staphylococcus aureus; details: MRSA ATCC 700787 VRSA
Protocol: as §1, §2

MRSA ATCC 700789 VRSA = type: cell-based, Staphylococcus aureus; details: MRSA ATCC 700789 VRSA
Protocol: as §1, §2

MRSA ATCC BAA-38 = type: cell-based, Staphylococcus aureus; details: MRSA ATCC BAA-38
Protocol: as §1, §2

MRSA ATCC BAA-39 = type: cell-based, Staphylococcus aureus; details: MRSA ATCC BAA-39
Protocol: as §1, §2

MRSA ATCC BAA-44 = type: cell-based, Staphylococcus aureus; details: MRSA ATCC BAA-44
Protocol: as §1, §2

S. aureus ATCC 29213 = type: cell-based, Staphylococcus aureus; details: SA ATCC 29213
Protocol: as §1, §2

E. faecalis ATCC 29302 = type: cell-based; details: EF ATCC 29302
Protocol: as §1, §2

VRE ATCC 700221 (vanA) = type: cell-based, enterococci; details: VRE ATCC 700221 (vanA)
Protocol: as §1, §2

VRE ATCC 700425 (vanC) = type: cell-based, enterococci; details: VRE ATCC 700425 (vanC)
Protocol: as §1, §2

VRE ATCC 700802 (vanB) = type: cell-based, enterococci; details: VRE ATCC 700802 (vanB)
Protocol: as §1, §2

A. baumannii ATCC 19606 = type: cell-based, Acinetobacter baumannii; details: for MIC on AB: A. baumannii ATCC 19606
Protocol: as §1, §2

[1] = A. baumannii ATCC 19606, Table 3, first figure of cell
[2] = A. baumannii ATCC 19606, Table 3, second figure of cell

SMILES	MIC (MRSA ATCC 43300)	MIC (MRSA ATCC 700698 hVISA)	MIC (MRSA ATCC 700787 VRSA)	MIC (MRSA ATCC 700789 VRSA)	MIC (MRSA ATCC BAA-38)	MIC (MRSA ATCC BAA-39)	MIC (MRSA ATCC BAA-44)	MIC (S. aureus ATCC 29213)	MIC (E. faecalis ATCC 29302)	MIC (VRE ATCC 700221 (vanA))	MIC (VRE ATCC 700425 (vanC))	MIC (VRE ATCC 700802 (vanB))	MIC (A. baumannii ATCC 19606; [1])	MIC (A. baumannii ATCC 19606; [2])	MIC on AB (A. baumannii ATCC 19606)
N[C@H]1C(=O)N[C@@H]2Cc3ccc(c(Cl)c3)Oc3cc4cc(c3O)Oc3ccc(cc3Cl)[C@@H](O[C@@H]3O[C@H](CO)[C@@H](O)[C@H](O)[C@H]3NC(=O)CCc3ccccc3)[C@@H]3NC(=O)[C@H](NC(=O)[C@@H]4NC(=O)[C@@H](NC2=O)c2cc(O)cc(c2)Oc2cc1ccc2O)c1ccc(O)c(c1)-c1c(O)cc(O)cc1[C@@H](C(=O)O)NC3=O [Compound 15]	0.031 µg/mL (≈ 0.0208 µM)	0.016 µg/mL (≈ 0.0107 µM)	0.031 µg/mL (≈ 0.0208 µM)	0.5 µg/mL (≈ 0.335 µM)	0.016 µg/mL (≈ 0.0107 µM)	0.016 µg/mL (≈ 0.0107 µM)	0.016 µg/mL (≈ 0.0107 µM)	0.031 µg/mL (≈ 0.0208 µM)	0.25 µg/mL (≈ 0.168 µM)	>16 µg/mL	1 µg/mL (≈ 0.67 µM)	0.5 µg/mL (≈ 0.335 µM)	–	–	–
NCCC[C@H](N)CC(=O)N[C@@H]1[C@H](O)[C@@H](OC(N)=O)[C@@H](CO)O[C@H]1NC1=N[C@@H]2C(=O)NC[C@@H](O)[C@H]2N1 [streptothricin F, reference compound]	–	–	–	–	–	–	–	–	–	–	–	–	12.5 µM	6.28 µg/mL	–
CCCCCCCC(=O)NC1C(OC2c3ccc(c(Cl)c3)Oc3cc4cc(c3O)Oc3ccc(cc3Cl)CC3NC(=O)C(N)c5ccc(O)c(c5)Oc5cc(O)cc(c5)C(NC3=O)C(=O)NC4C(=O)NC3C(=O)NC2C(=O)NC(C(=O)O)c2cc(O)cc(OC4OC(CO)C(O)C(O)C4O)c2-c2cc3ccc2O)OC(CO)C(O)C1O (stereo not drawn) [Compound 26]	0.125 µg/mL (≈ 0.0758 µM)	0.031 µg/mL (≈ 0.0188 µM)	0.5 µg/mL (≈ 0.303 µM)	0.5 µg/mL (≈ 0.303 µM)	0.125 µg/mL (≈ 0.0758 µM)	0.016 µg/mL (≈ 0.00971 µM)	0.016 µg/mL (≈ 0.00971 µM)	0.016 µg/mL (≈ 0.00971 µM)	0.5 µg/mL (≈ 0.303 µM)	>16 µg/mL	1 µg/mL (≈ 0.607 µM)	1 µg/mL (≈ 0.607 µM)	–	–	–
CC(=O)NC1C(OC2c3ccc(c(Cl)c3)Oc3cc4cc(c3OC3OC(CO)C(O)C(O)C3NC(=O)CCCCCCCNC(=N)N)Oc3ccc(cc3Cl)CC3NC(=O)C(N(C)C)c5ccc(O)c(c5)Oc5cc(O)cc(c5)C(NC3=O)C(=O)NC4C(=O)NC3C(=O)NC2C(=O)NC(C(=O)O)c2cc(O)cc(OC4OC(CO)C(O)C(O)C4O)c2-c2cc3ccc2O)OC(CO)C(O)C1O (stereo not drawn) [Compound 27]	–	–	–	–	–	–	–	–	–	–	–	–	50 µM	96.73 µg/mL	–
CN(C)[C@H]1C(=O)N[C@@H]2Cc3ccc(c(Cl)c3)Oc3cc4cc(c3O)Oc3ccc(cc3Cl)[C@@H](O[C@@H]3O[C@H](CO)[C@@H](O)[C@H](O)[C@H]3NC(=O)CCCCCCCNC(=N)NC(=N)N)[C@@H]3NC(=O)[C@H](NC(=O)[C@@H]4NC(=O)[C@@H](NC2=O)c2cc(O)cc(c2)Oc2cc1ccc2O)c1ccc(O)c(c1)-c1c(O)cc(O)cc1[C@@H](C(=O)O)NC3=O [Compound 25, r1,Me2-r6,C8-diguanidino-Tei]	–	–	–	–	–	–	–	–	–	–	–	–	25 µM	40.29 µg/mL	39.24 µg/mL (≈ 24.3 µM)
N[C@H]1C(=O)N[C@@H]2Cc3ccc(c(Cl)c3)Oc3cc4cc(c3O)Oc3ccc(cc3Cl)[C@@H](O[C@@H]3O[C@H](CO)[C@@H](O)[C@H](O)[C@H]3NC(=O)CCCCCc3ccccc3)[C@@H]3NC(=O)[C@H](NC(=O)[C@@H]4NC(=O)[C@@H](NC2=O)c2cc(O)cc(c2)Oc2cc1ccc2O)c1ccc(O)c(c1)-c1c(O)cc(O)cc1[C@@H](C(=O)O)NC3=O [Compound 16]	0.063 µg/mL (≈ 0.0411 µM)	0.016 µg/mL (≈ 0.0104 µM)	0.125 µg/mL (≈ 0.0815 µM)	0.5 µg/mL (≈ 0.326 µM)	0.031 µg/mL (≈ 0.0202 µM)	0.063 µg/mL (≈ 0.0411 µM)	0.016 µg/mL (≈ 0.0104 µM)	0.125 µg/mL (≈ 0.0815 µM)	0.25 µg/mL (≈ 0.163 µM)	>16 µg/mL	1 µg/mL (≈ 0.652 µM)	0.25 µg/mL (≈ 0.163 µM)	–	–	–
CN(C)[C@H]1C(=O)N[C@@H]2Cc3ccc(c(Cl)c3)Oc3cc4cc(c3O)Oc3ccc(cc3Cl)[C@@H](O[C@@H]3O[C@H](CO)[C@@H](O)[C@H](O)[C@H]3NC(=O)CCCCCCCN)[C@@H]3NC(=O)[C@H](NC(=O)[C@@H]4NC(=O)[C@@H](NC2=O)c2cc(O)cc(c2)Oc2cc1ccc2O)c1ccc(O)c(c1)-c1c(O)cc(O)cc1[C@@H](C(=O)O)NC3=O [Compound 22]	–	0.125 µg/mL (≈ 0.0817 µM)	0.063 µg/mL (≈ 0.0412 µM)	–	–	–	–	0.031 µg/mL (≈ 0.0203 µM)	1 µg/mL (≈ 0.654 µM)	>16 µg/mL	2 µg/mL (≈ 1.31 µM)	1 µg/mL (≈ 0.654 µM)	25 µM	38.19 µg/mL	–
CN(C)[C@H]1C(=O)N[C@@H]2Cc3ccc(c(Cl)c3)Oc3cc4cc(c3O)Oc3ccc(cc3Cl)[C@@H](O[C@@H]3O[C@H](CO)[C@@H](O)[C@H](O)[C@H]3NC(=O)CCCCCCC[N+](C)(C)C)[C@@H]3NC(=O)[C@H](NC(=O)[C@@H]4NC(=O)[C@@H](NC2=O)c2cc(O)cc(c2)Oc2cc1ccc2O)c1ccc(O)c(c1)-c1c(O)cc(O)cc1[C@@H](C(=O)O)NC3=O [Compound 23]	–	0.031 µg/mL	0.031 µg/mL	–	–	–	–	0.031 µg/mL	0.25 µg/mL	>16 µg/mL	2 µg/mL	1 µg/mL	50 µM	78.52 µg/mL	78.52 µg/mL
C#CCCC(=O)N[C@H]1[C@H](O[C@@H]2c3ccc(c(Cl)c3)Oc3cc4cc(c3O)Oc3ccc(cc3Cl)C[C@H]3NC(=O)[C@H](N)c5ccc(O)c(c5)Oc5cc(O)cc(c5)[C@H](NC3=O)C(=O)N[C@H]4C(=O)N[C@H]3C(=O)N[C@@H]2C(=O)N[C@H](C(=O)O)c2cc(O)cc(O)c2-c2cc3ccc2O)O[C@H](CO)[C@@H](O)[C@@H]1O [Compound 13]	0.125 µg/mL (≈ 0.0868 µM)	0.063 µg/mL (≈ 0.0437 µM)	0.063 µg/mL (≈ 0.0437 µM)	1 µg/mL (≈ 0.694 µM)	0.063 µg/mL (≈ 0.0437 µM)	0.063 µg/mL (≈ 0.0437 µM)	0.031 µg/mL (≈ 0.0215 µM)	0.063 µg/mL (≈ 0.0437 µM)	0.5 µg/mL (≈ 0.347 µM)	>16 µg/mL	4 µg/mL (≈ 2.78 µM)	4 µg/mL (≈ 2.78 µM)	–	–	–
CN(C)[C@H]1C(=O)N[C@@H]2Cc3ccc(c(Cl)c3)Oc3cc4cc(c3O)Oc3ccc(cc3Cl)[C@@H](O[C@@H]3O[C@H](CO)[C@@H](O)[C@H](O)[C@H]3NC(=O)CCCCCCCO)[C@@H]3NC(=O)[C@H](NC(=O)[C@@H]4NC(=O)[C@@H](NC2=O)c2cc(O)cc(c2)Oc2cc1ccc2O)c1ccc(O)c(c1)-c1c(O)cc(O)cc1[C@@H](C(=O)O)NC3=O [Compound 21]	–	0.063 µg/mL (≈ 0.0412 µM)	0.125 µg/mL (≈ 0.0817 µM)	–	–	–	–	0.125 µg/mL (≈ 0.0817 µM)	1 µg/mL (≈ 0.653 µM)	>16 µg/mL	8 µg/mL (≈ 5.23 µM)	8 µg/mL (≈ 5.23 µM)	100 µM	152.84 µg/mL	152.84 µg/mL (≈ 99.9 µM)
CCCCCCCC(=O)N[C@H]1[C@H](O[C@@H]2c3ccc(c(Cl)c3)Oc3cc4cc(c3O)Oc3ccc(cc3Cl)C[C@H]3NC(=O)[C@H](N(C)C)c5ccc(O)c(c5)Oc5cc(O)cc(c5)[C@H](NC3=O)C(=O)N[C@H]4C(=O)N[C@H]3C(=O)N[C@@H]2C(=O)N[C@H](C(=O)O)c2cc(O)cc(O)c2-c2cc3ccc2O)O[C@H](CO)[C@@H](O)[C@@H]1O [Compound 20]	0.063 µg/mL (≈ 0.0416 µM)	0.016 µg/mL (≈ 0.0106 µM)	0.016 µg/mL (≈ 0.0106 µM)	0.5 µg/mL (≈ 0.33 µM)	0.016 µg/mL (≈ 0.0106 µM)	0.016 µg/mL (≈ 0.0106 µM)	0.016 µg/mL (≈ 0.0106 µM)	0.016 µg/mL (≈ 0.0106 µM)	0.25 µg/mL (≈ 0.165 µM)	>16 µg/mL	1 µg/mL (≈ 0.66 µM)	0.5 µg/mL (≈ 0.33 µM)	–	–	–
